From PMC2800189, “β-Neurexin Is a Ligand for the Staphylococcus aureus MSCRAMM SdrC” (PLoS Pathogens, 2010)

Tests used:
SdrCN2N3 [1] = molecular target: T1, SdrCN2N3 (Staphylococcus aureus, UniProt O86487); type: binding, S. aureus; conditions: 10 nM fluorescein-labeled peptide, 3 hours, room temperature, dark
T1 construct: Increasing concentrations of SdrC178-496 were incubated with 10 nM labeled peptide; His tag (N); made in house; host or cells: E. coli Topp 3
Method: We used fluorescence polarization to determine the dissociation constant for the SdrCN2N3-Nrx1β peptide interaction. spNrxwt and spNrxscr were labeled with fluorescein and incubated with increasing concentrations of recombinant MSCRAMM.
Increasing concentrations of SdrCN2N3 or ClfBN2N3 (black circle) were incubated with 10 nM fluorescein-labelled spNrxwt peptide (black square) or spNrxscr peptide (black triangle) for 3 hours at room temperature in the dark. Equation ΔP = ΔPmax [protein]/(KD+[protein]) was used to calculate the equilibrium constant. […] After 3 hours, the mixture was incubated for another 3 hours at room temperature in the dark with 10 nM fluorescein labeled spNrxwt peptide. Fluorescence polarization was determined as described above. […]
Increasing concentrations of SdrC178-496 were incubated with 10 nM labeled peptide for 3 hours in the dark at room temperature. Polarization was measured using Luminescence Spectrometer LB50B (Perkin Elmer). The data were analyzed by non-linear regression for one binding site. The equilibrium dissociation constant was calculated using the equation ΔP = ΔPmax x [protein])/(KD + [protein]) (Eq.1) where ΔP is the change in fluorescence polarization, ΔPmax is the maximum change in fluorescence polarization and KD is the equilibrium dissociation constant of the interaction.

SdrCN2N3 [2] = molecular target: T1, SdrCN2N3; experiment: Fluorescence polarization inhibition by unlabeled peptides of SdrCN2N3 binding to fluorescein-labeled spNrxwt; design: species or system S. aureus; conditions: 0.5 µM SdrCN2N3 with unlabeled peptide 3 hours, then 3 hours with 10 nM labeled spNrxwt, room temperature; mean±SD, three experiments
Method: After 3 hours, the mixture was incubated for another 3 hours at room temperature in the dark with 10 nM fluorescein labeled spNrxwt peptide. Fluorescence polarization was determined as described above. The values represented here are the mean±SD of triplicates from three experiments.
To eliminate the possibility that the binding was dependent of the fluorescein label introduced in the wild-type peptide, we tested the ability of unlabeled spNrxwt and spNrxscr to inhibit the binding of SdrCN2N3 to fluorescein-labeled spNrxwt. Increasing concentrations of unlabeled peptides were incubated with SdrCN2N3 for three hours at room temperature before the fluorescent polarization experiment was performed.
For inhibition assays, 0.5 µM SdrC178–496 was first incubated with increasing concentrations of unlabeled Nrxwt or unlabeled Nrxscr for 3 hours at room temperature. The mixture was then incubated for 3 hours with fluorescein-labeled Nrxwt. The results presented represent the mean±SD of three independent experiments.

[3] = tested on: SdrCN2N3 - Nrx47-255 interaction; experiment: Peptide inhibition of SdrCN2N3 binding to immobilized Nrx47-255; design: species or system S. aureus (SdrC); conditions: 0.5 µM SdrCN2N3 with increasing peptide, 2 hours, room temperature, then on immobilized Nrx47-255; mean±SD of triplicates from three experiments
Method: Figure 3 Structural organization of β-neurexins. (A) A cartoon representation of β-neurexin domain structure. S, signal sequence; NL, neuroligin-binding domain; Glyc, glycosylation domain; TM, transmembrane domain; PDZ, intracellular signaling domain. Also shown, are the recombinant proteins used in this study. (B) Coomassie-stained SDS-PAGE gel of GST-tagged neurexin 1β domains recombinant proteins. Increasing concentrations of SdrCA (C) and SdrCN2N3 (D) were incubated with immobilized Nrx47-255 (black square), Nrx70–255 (black triangle) or GST (black circle) for 1 hour at room temperature. […] (E) SdrC178–496 (0.5 µM) was incubated with increasing concentrations of spNrxwt peptide (black square) or spNrxscr peptide (black triangle) at room temperature. After 2 hours, the mixture was incubated with immobilized Nrx47–255. […]
Each well of Immulon 4BH plates was coated with 1 µg of recombinant Nrx47–255-GST, Nrx70–255-GSTor GST overnight at 4°C. […] Bound protein was detected with a polyclonal antibody (1∶3000) against SdrCN2N3 (H.T.I. BioProducts) followed by an anti-rabbit HRP-labeled antibody (1∶5000) (Bio-Rad Labs, Hercules, CA). Color development was performed using SigmaFast OPD (Sigma, St. Louis, MO) and the binding was measured using a microtiter plate reader (Molecular Devices) at 450 nm. […] The binding was analyzed by non-linear regression for one binding site (GraphPad Prism).

[4] = molecular target: Nrx_(47-255)-GST, recombinant neurexin 1β fragment (human) (UniProt P58400); experiment: ELISA; solid phase binding assay: 1 µg/well Nrx-GST protein or GST coated on Immulon 4BH plates, increasing concentrations of SdrC protein, 1 hour at room temperature, detected with anti-SdrC_(N2N3) serum; apparent KD (concentration for half maximum binding)
[5] = molecular target: fluorescein-labeled spNrxwt (human); experiment: fluorescence polarisation; increasing concentrations of MSCRAMM with 10 nM fluorescein-labelled peptide, 3 hours at room temperature in the dark; one-site fit
[6] = Phage display panning with immobilized SdrGN2N3 or BSA, total bound TUs; type: binding; conditions: input phage 1.5×10^11, 1 µg/well
From the text: Analysis of peptides or protein segments displaced on the surface of phage is a useful method to identify partners in protein-protein interaction systems,[17],[18],[19]. To determine if this method can be used to identify ligands for MSCRAMMs from Gram-positive bacteria, we performed a validation experiment using SdrGN2N3 as bait in a screen of a commercially available 12-mer linear library (New England Biolabs Ph.D.-12 Phage Display Peptide Library). We carried out three successive rounds of panning against immobilized SdrGN2N3. To confirm that the enrichment of the phage clones between panning rounds was the result of specific interactions, the phage pool before and after each step of amplification was also tested for binding to BSA. […] We then sequenced the DNA purified from ten phage plaques obtained after the third round of panning.
NEB Ph.D.12-mer random library was incubated with immobilized SdrC N2N3, SdrG N2N3 or BSA at 1 µg/well. The input was 1.5×10^11 transducing units with a complexity of 2.7×10^9 electroporated sequences. The assay was performed according to the manufacturer's instructions. The output phage plaques were 10^4 transducing units. Wells were washed with 0.5% Tween in TBS buffer, blocked with 10% BSA and incubated with 1×10^8 transducing units of each amplified phage or insertless phage (fd-tet). To remove unbound phage, wells were washed 10 times with 0.5% Tween in TBS. Bound phage was detected with anti-M13-HRP antibody (GE Healthcare, Buckinghamshire, UK).

Nrx_(47-255)-GST, recombinant neurexin 1β fragment (human), sequence (P58400 47-255): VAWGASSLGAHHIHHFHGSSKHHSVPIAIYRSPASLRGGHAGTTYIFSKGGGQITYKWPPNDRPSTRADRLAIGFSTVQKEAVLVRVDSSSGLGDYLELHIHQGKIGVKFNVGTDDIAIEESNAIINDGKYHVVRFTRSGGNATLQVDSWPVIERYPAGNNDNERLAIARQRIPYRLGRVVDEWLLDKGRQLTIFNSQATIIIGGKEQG
T1 sequence (O86487 178-496): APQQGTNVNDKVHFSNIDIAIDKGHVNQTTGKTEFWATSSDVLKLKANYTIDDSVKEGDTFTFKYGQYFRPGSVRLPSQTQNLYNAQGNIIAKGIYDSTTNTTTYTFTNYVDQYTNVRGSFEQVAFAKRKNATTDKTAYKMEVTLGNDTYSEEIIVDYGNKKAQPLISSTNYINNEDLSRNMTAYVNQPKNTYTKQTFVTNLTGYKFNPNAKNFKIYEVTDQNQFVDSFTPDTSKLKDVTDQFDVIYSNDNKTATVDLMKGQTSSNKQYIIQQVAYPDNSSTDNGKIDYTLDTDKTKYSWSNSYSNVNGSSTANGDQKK
SdrC N2N3 domain, recombinant SdrC_(178-496), sequence (O86487 178-496 limits assumed): as the sequence (O86487 178-496) above
SdrC A-region, recombinant SdrC_(52-496), sequence (O86487 52-496 limits assumed): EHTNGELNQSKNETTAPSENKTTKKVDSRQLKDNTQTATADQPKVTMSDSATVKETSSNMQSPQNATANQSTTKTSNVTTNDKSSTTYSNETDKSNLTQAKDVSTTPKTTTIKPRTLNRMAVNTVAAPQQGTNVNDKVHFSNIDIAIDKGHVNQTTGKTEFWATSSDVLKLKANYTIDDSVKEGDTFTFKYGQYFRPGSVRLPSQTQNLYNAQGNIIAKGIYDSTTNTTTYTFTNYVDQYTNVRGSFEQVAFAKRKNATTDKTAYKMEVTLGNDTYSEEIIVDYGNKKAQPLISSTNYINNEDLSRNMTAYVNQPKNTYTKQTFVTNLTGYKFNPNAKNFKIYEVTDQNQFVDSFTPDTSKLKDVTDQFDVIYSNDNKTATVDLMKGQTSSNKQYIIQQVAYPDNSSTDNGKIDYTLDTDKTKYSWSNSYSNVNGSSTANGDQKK

HSHIKLHSHGHSFGHA [spNrxscr]
binding to SdrCN2N3 by fluorescence polarization (SdrCN2N3 [1]): did not detect a significant binding | inhibition of SdrCN2N3 binding to fluorescein-labeled spNrxwt (SdrCN2N3 [2]): but not the spNrxscr inhibited | inhibition of SdrCN2N3-Nrx47-255 binding [3]: did not observe an inhibition

SdrC A-region, recombinant SdrC_(52-496) (from UniProt O86487 52-496) (domain or fragment)
Kd [4]: 185 nM

SdrC N2N3 domain, recombinant SdrC_(178-496) (from UniProt O86487 178-496) (domain or fragment)
Kd [4]: 126 nM | Kd [5]: 250 nM

SdrG: fibrinogen-binding MSCRAMM of Staphylococcus epidermidis, N2N3 domain used as bait
Total bound TUs ([6]; panning 1): 4×10^5 TUs | Total bound TUs ([6]; panning 2): 3×10^7 TUs | Total bound TUs ([6]; panning 3): 2×10^8 TUs
